Patent US20150183738A1, “3-N-BUTYL-1-ISOINDOLINONE AND USE THEREOF FOR PREVENTING OR TREATING CEREBRAL INFARCTION” (SUN YAT-SEN UNIVERSITY, priority 2012, published 2015)
“Also recorded” adds a separate entry of the source.

How the values were obtained:
[1] = system: middle cerebral artery occlusion (MCAO) model in rats; experiment: Neurobehavioral assessment (Zea Longa) in MCAO models of rats; format: in vivo, Male SD rats; conditions: score after 24 hrs of reperfusion; for alleviation of the neurobehavior compared with the blank control group (ANOVA): 30 mg/kg i.p.
Method: Male SD rats having a weight of between 250 and 270 g are selected. The Male SD rats are cultivated at a room temperature of 25° C. and are forbidden from feeding food except for water 12 hrs before the operation. The MCAO models are constructed in accordance with longa method or the like. 10% chloral hydrate is used to anesthetize the rats by intraperitoneal injection with a dose of 350 mg/kg. The rat is then upwardly fixed on a rat plate in a supine position and illuminated by an incandescent lamp for maintaining a body temperature thereof at 37±0.5° C. Rat hairs at the middle position of the neck are sheared, and the skin at such position is incised after disinfection. The common carotid artery (CCA), external carotid artery (ECA), and internal carotid artery (ICA) of the right side are carefully separated. The ECA is cut, and a cut end is straightened and aligned with the ICA, and a thread is then inserted therefrom. The thread is inserted for a depth of approximately 19.0±0.5 mm. After 2 hrs, a part of the thread is pulled out to realize reperfusion. The rat after suture ligation is then put back to the rat cage. After 24 hrs of reperfusion, brain slices are prepared for staining.
The rats are divided into three groups with 10 in each group: 1) a blank control group, i. e., an vegetable oil, 3 mL/kg; 2) 3-n-butyl-1-isoindolinone group, 30 mg/kg; 3) a positive control group, i. e., 3-n-butylphthalide, 30 mg/kg. All the three groups are administered with drugs via intraperitoneal injection 15 min after modeling.
According to Zea Longa assessment, ethology observation is conducted after 2 hrs of modeling and 24 hrs of reperfusion and before killing the rats. The tail of the rat is seized to lift the rat about 1 foot off the ground to observe the condition of the left forelimb. […]
After 24 hrs of reperfusion of the MCAO models of the rats, the neurobehavioral assessment is conducted on the rats again, and the results are recorded.

[2] = system: middle cerebral artery occlusion (MCAO) model in rats; experiment: Influence on cerebral infarct area/volume in MCAO models of rats (TTC staining, image J); format: in vivo, Male SD rats; conditions: for average infarct area: 30 mg/kg intraperitoneal injection 15 min after ischemia, 2 hrs of cerebral infarction and 24 hrs of reperfusion, TTC staining
Method: The middle cerebral artery occlusion (MCAO) model in rats is constructed to observe the anti-cerebral ischemia of 3-n-butyl-1-isoindolinone. The MCAO model is divided into three groups: 1) a negative control group, i. e., an vegetable oil, 3 mL/kg; 2) 3-n-butyl-1-isoindolinone group, 30 mg/kg; 3) a positive control group, i. e., 3-n-butylphthalide, 30 mg/kg. All the three groups are administered via intraperitoneal injection. Male SD rats having a weight of 250 g are selected and administered 15 min after the ischemia. After 2 hrs of cerebral infarction and 24 hrs of reperfusion, brain slices are prepared and conducted with TTC staining. Software image J is used to process staining results, calculate infarct areas, and compared with the results among different groups. It is known from the results that an average infarct area of the blank group is 24.430%, the average infarct area of the 3-n-butyl-1-isoindolinone group is 14.365%, and the average infarct area of the butylphthalide group is 14.402%. […] Male SD rats having a weight of between 250 and 270 g are selected. The Male SD rats are cultivated at a room temperature of 25° C. and are forbidden from feeding food except for water 12 hrs before the operation. The MCAO models are constructed in accordance with longa method or the like. 10% chloral hydrate is used to anesthetize the rats by intraperitoneal injection with a dose of 350 mg/kg. The rat is then upwardly fixed on a rat plate in a supine position and illuminated by an incandescent lamp for maintaining a body temperature thereof at 37±0.5° C. Rat hairs at the middle position of the neck are sheared, and the skin at such position is incised after disinfection. The common carotid artery (CCA), external carotid artery (ECA), and internal carotid artery (ICA) of the right side are carefully separated. The ECA is cut, and a cut end is straightened and aligned with the ICA, and a thread is then inserted therefrom. The thread is inserted for a depth of approximately 19.0±0.5 mm. After 2 hrs, a part of the thread is pulled out to realize reperfusion. The rat after suture ligation is then put back to the rat cage. After 24 hrs of reperfusion, brain slices are prepared for staining. The rats are divided into three groups with 10 in each group: 1) a blank control group, i. e., an vegetable oil, 3 mL/kg; 2) 3-n-butyl-1-isoindolinone group, 30 mg/kg; 3) a positive control group, i. e., 3-n-butylphthalide, 30 mg/kg. All the three groups are administered with drugs via intraperitoneal injection 15 min after modeling. After 24 hrs of reperfusion, brains are collected from killed rats and placed in Petri dishes. The brain tissues are quickly collected and placed in a refrigerator at a temperature of −20° C. for 20 min and taken out. The olfactory bulb, the cerebellum, and the lower brainstem are removed, and the remaining brain is then cut for five times with an interval of 2 mm, whereby six consecutive coronal brain slices are formed. 2% TTC dye solution is added to the Petri dishes to submerge the brain slice by the solution. The Petri dishes are placed at the temperature of 37° C. and incubated in the absence of light for between 25 and 30 min during which the brain slices are turned over once every 5 min. After TTC staining of the brain slices, a normal tissue thereof presents red and an ischemic region presents white. When the TTC staining is finished, the TTC dye solution is removed out of the Petri dishes by syringes. Formalin solution with an amount enabling to submerge the brain slices is then added, and the Petri dishes are placed in the dark. After 24 hrs, solidified brain slices are taken out and arranged in order in a blue background to take pictures. […]

[3] = background statement; oily liquid; cited from earlier work
[4] = 30 mg/kg i.p., 2 hrs MCAO, 24 hrs reperfusion

## CCCCC1OC(=O)c2ccccc21 (stereo not shown) [butylphthalide, 3-n-butylphthalide, reference compound]
[1]
  alleviation of the neurobehavior compared with the blank control group (ANOVA): significant difference
[2]; [4]
  reduced infarct area compared with the blank control group (one-factor ANOVA): significant difference (P<0.01)
[2]
  average infarct area: 14.402%
[3]
  water solubility: water insoluble

## CCCCC1NC(=O)c2ccccc21 (stereo not shown) [3-n-butyl-1-isoindolinone]
[1]
  alleviation of the neurobehavior compared with the blank control group (ANOVA): significant difference (P=0.003<0.01)
[1]; both 30 mg/kg i.p.
  alleviation of the neurobehavior compared with the butylphthalide group (ANOVA): no significant difference (P=0.384>0.05)
[2]; [4]
  infarct volume reduced compared with the solvent control group: 41.199%
  reduced infarct area compared with the blank control group (one-factor ANOVA): significant difference (P<0.001)
[2]
  average infarct area: 14.365%
[2]; both 30 mg/kg i.p., 2 hrs MCAO, 24 hrs reperfusion
  reduced infarct area, difference compared with butylphthalide (one-factor ANOVA): no significant statistical difference; also recorded: no statistical significance (P=0.989)
